{"source": "patent US20090298073A1", "about": "“Kidney Toxicity Biomarkers” (priority 2006, published 2009)", "type_in_all_cases": "in vivo, rat", "key": {"male rats [1]": {"system": "male rats", "experiment": "Histopathologically-assessed kidney toxicity in rats"}, "male rats [2]": {"system": "male rats", "experiment": "ELISA of urinary TFF3 in rats treated with kidney toxicants", "details": "urine", "description": "(§1) The biomarkers of the present invention can be measured in blood or urine during testing of a novel therapeutic compound. […] ELISA antibody assays are used to evaluate changes in protein levels.\n(§2) Antibodies were purchased or made and ELISA assays were performed to measure the levels of four Kidney Toxicity Biomarker proteins in urine. The proteins are TFF3; Tarnm Horsfall protein (THP); neutrophil gelatinase-associated lipocalin (NGAL) and albumin."}, "male rats [3]": {"system": "male rats", "experiment": "ELISA of urinary NGAL in rats treated with kidney toxicants", "details": "urine", "description": "as §1, §2"}, "male rats [4]": {"system": "male rats", "experiment": "ELISA of urinary albumin in rats treated with kidney toxicants", "details": "urine", "description": "as §1, §2"}, "male rats [5]": {"system": "male rats", "experiment": "ELISA of urinary Tamm Horsfall protein (THP) in rats treated with kidney toxicants", "details": "urine", "description": "as §1, §2"}, "[6]": {"details": "gentamicin 20 mg/Kg/Day, Day 15"}, "[7]": {"details": "gentamicin 80 mg/Kg/Day, Day 15"}, "[8]": {"details": "gentamicin 240 mg/Kg/Day, Day 3"}, "[9]": {"details": "gentamicin 240 mg/Kg/Day, Day 9"}, "[10]": {"details": "gentamicin 240 mg/Kg/Day, Day 12"}}, "data": [{"substance": "Gentamicin", "values": [{"measurement": "Histopathology Score", "setting": "male rats [1]; [6]", "value": "<1"}, {"measurement": "Histopathology Score", "setting": "male rats [1]; gentamicin 80 mg/Kg/Day, Day 3", "value": "<1"}, {"measurement": "Histopathology Score", "setting": "male rats [1]; [7]", "value": 2}, {"measurement": "Histopathology Score", "setting": "male rats [1]; [8]", "value": "<1"}, {"measurement": "Histopathology Score", "setting": "male rats [1]; [9]", "value": 4}, {"measurement": "Histopathology Score", "setting": "male rats [1]; [10]", "value": 5}, {"measurement": "TFF3", "setting": "male rats [2]; gentamicin 20 mg/Kg/Day, Day 3", "value": 634, "unit": "ng/mL"}, {"measurement": "TFF3", "setting": "male rats [2]; gentamicin 20 mg/Kg/Day, Day 9", "value": 202, "unit": "ng/mL"}, {"measurement": "TFF3", "setting": "male rats [2]; [6]", "value": 265, "unit": "ng/mL"}, {"measurement": "TFF3", "setting": "male rats [2]; gentamicin 80 mg/Kg/Day, Day 3", "value": 280, "unit": "ng/mL"}, {"measurement": "TFF3", "setting": "male rats [2]; gentamicin 80 mg/Kg/Day, Day 9", "value": 121, "unit": "ng/mL"}, {"measurement": "TFF3", "setting": "male rats [2]; [7]", "value": 69, "unit": "ng/mL"}, {"measurement": "TFF3", "setting": "male rats [2]; [8]", "value": 132, "unit": "ng/mL"}, {"measurement": "TFF3", "setting": "male rats [2]; [9]", "value": 1.3, "unit": "ng/mL"}, {"measurement": "TFF3", "setting": "male rats [2]; [10]", "value": 29, "unit": "ng/mL"}, {"measurement": "NGAL", "setting": "male rats [3]; gentamicin 20 mg/Kg/Day, Day 3", "value": 14, "unit": "µg/mL"}, {"measurement": "NGAL", "setting": "male rats [3]; gentamicin 20 mg/Kg/Day, Day 9", "value": 15, "unit": "µg/mL"}, {"measurement": "NGAL", "setting": "male rats [3]; [6]", "value": 15, "unit": "µg/mL"}, {"measurement": "NGAL", "setting": "male rats [3]; gentamicin 80 mg/Kg/Day, Day 3", "value": 13, "unit": "µg/mL"}, {"measurement": "NGAL", "setting": "male rats [3]; gentamicin 80 mg/Kg/Day, Day 9", "value": 14, "unit": "µg/mL"}, {"measurement": "NGAL", "setting": "male rats [3]; [7]", "value": 20, "unit": "µg/mL"}, {"measurement": "NGAL", "setting": "male rats [3]; [8]", "value": 17, "unit": "µg/mL"}, {"measurement": "NGAL", "setting": "male rats [3]; [9]", "value": 13, "unit": "µg/mL"}, {"measurement": "NGAL", "setting": "male rats [3]; [10]", "value": 25, "unit": "µg/mL"}, {"measurement": "Albumin", "setting": "male rats [4]; gentamicin 20 mg/Kg/Day, Day 3", "value": 14, "unit": "µg/mL"}, {"measurement": "Albumin", "setting": "male rats [4]; gentamicin 20 mg/Kg/Day, Day 9", "value": 7, "unit": "µg/mL"}, {"measurement": "Albumin", "setting": "male rats [4]; [6]", "value": 13, "unit": "µg/mL"}, {"measurement": "Albumin", "setting": "male rats [4]; gentamicin 80 mg/Kg/Day, Day 3", "value": 221, "unit": "µg/mL"}, {"measurement": "Albumin", "setting": "male rats [4]; gentamicin 80 mg/Kg/Day, Day 9", "value": 190, "unit": "µg/mL"}, {"measurement": "Albumin", "setting": "male rats [4]; [7]", "value": 22, "unit": "µg/mL"}, {"measurement": "Albumin", "setting": "male rats [4]; [8]", "value": 129, "unit": "µg/mL"}, {"measurement": "Albumin", "setting": "male rats [4]; [9]", "value": 534, "unit": "µg/mL"}, {"measurement": "Albumin", "setting": "male rats [4]; [10]", "value": 502, "unit": "µg/mL"}, {"measurement": "THP", "setting": "male rats [5]; gentamicin 20 mg/Kg/Day, Day 3", "value": 4.1, "unit": "µg/mL"}, {"measurement": "THP", "setting": "male rats [5]; gentamicin 20 mg/Kg/Day, Day 9", "value": 4.5, "unit": "µg/mL"}, {"measurement": "THP", "setting": "male rats [5]; [6]", "value": 4.4, "unit": "µg/mL"}, {"measurement": "THP", "setting": "male rats [5]; gentamicin 80 mg/Kg/Day, Day 3", "value": 3.4, "unit": "µg/mL"}, {"measurement": "THP", "setting": "male rats [5]; gentamicin 80 mg/Kg/Day, Day 9", "value": 3.1, "unit": "µg/mL"}, {"measurement": "THP", "setting": "male rats [5]; [7]", "value": 3.9, "unit": "µg/mL"}, {"measurement": "THP", "setting": "male rats [5]; [8]", "value": 3.2, "unit": "µg/mL"}, {"measurement": "THP", "setting": "male rats [5]; [9]", "value": 1.3, "unit": "µg/mL"}, {"measurement": "THP", "setting": "male rats [5]; [10]", "value": 1.9, "unit": "µg/mL"}]}]}
